Reference: US9982006B2, “2′-chloro aminopyrimidinone and pyrimidine dione nucleosides” (Gilead Sciences, Inc., priority 2014, dated 2018)

System: RSV strain A2
Experiment: RSV cell culture EC50 determination (infectious cytopathic cell protection assay in HEp-2 cells)
Assay type: cell-based
Conditions: human respiratory syncytial virus, 96 h; inhibition of RSV-induced cytopathic effect in HEp-2 cells, 4 days, Cell TiterGlo readout
Protocol: RSV Cell Culture EC50 Determination
Antiviral activity against RSV is determined using an infectious cytopathic cell protection assay in HEp-2 cells. In this assay, compounds inhibiting viral infection and/or replication produce a cytoprotective effect against the virus-induced cell killing that can be quantified using a cell viability reagent. The techniques used here are novel adaptations of methods described in published literature (Chapman et al., Antimicrob Agents Chemother. 2007, 51(9):3346-53.)
HEp-2 cells are obtained from ATCC (Manassas, VI) and maintained in MEM media supplemented with 10% fetal bovine serum and penicillin/streptomycin. […]
For antiviral tests, HEp-2 cells are grown in large cell culture flasks to near confluency but not fully so. […] Each compound dilution is transferred in single or quadruplicate samples into dry assay plates, which are stored until assay is ready to go. […]
Subsequently, an infectious mixture is prepared using an appropriate dilution of virus stock previously determined by titration with cells at a density of 50,000/ml and 20 uL/well is added to test plates w/compounds via automation (uFlow, Biotek). […] After the incubation, a cell viability reagent, Cell TiterGlo (Promega, Madison, Wis.) is added to the assay plates, which are incubated briefly, and a luminescent readout is measured (Envision, Perkin Elmer) in all the assay plates. […]

EC50: > 50 µM
Structure (SMILES): Nc1ccn([C@@H]2O[C@@](CO)(CCl)[C@@H](O)[C@H]2Cl)c(=O)n1 [Example 1, 4-amino-1-((2R,3R,4R,5R)-3-chloro-5-(chloromethyl)-4-hydroxy-5-(hydroxymethyl)tetrahydrofuran-2-yl)pyrimidin-2(1H)-one]
